Laboratory results as given in ChEMBL document CHEMBL5050844 (2019).

Legend:
Type in all cases: functional, T cell line
[1] = Induction of anti-CD3/CD28 antibodies-stimulated human T cell activation at 4 uM assessed fold increase in IL-2 secretion measured by ELISA assay
[2] = Induction of anti-CD3/CD28 antibodies-stimulated human T cell activation at 1 uM assessed fold increase in IL-2 secretion measured by ELISA assay
[3] = Induction of anti-CD3/CD28 antibodies-stimulated human T cell activation at 0.3 uM assessed fold increase in IL-2 secretion measured by ELISA assay
[4] = Induction of anti-CD3 antibodies-stimulated human T cell activation at 8 uM assessed fold increase in IL-2 secretion measured by ELISA assay; further: reference of the scale not given here
[5] = Induction of anti-CD3 antibodies-stimulated human T cell activation at 1 uM assessed fold increase in IL-2 secretion measured by ELISA assay; further: reference of the scale not given here
[6] = Induction of anti-CD3/CD28 antibodies-stimulated human T cell activation at 4 uM assessed fold increase in CD25 expression measured by ELISA assay
[7] = Induction of anti-CD3/CD28 antibodies-stimulated human T cell activation at 1 uM assessed fold increase in CD25 expression measured by ELISA assay
[8] = Induction of anti-CD3/CD28 antibodies-stimulated human T cell activation at 0.3 uM assessed fold increase in CD25 expression measured by ELISA assay
[9] = Induction of anti-CD3 antibodies-stimulated human T cell activation at 8 uM assessed fold increase in CD25 expression measured by ELISA assay; further: reference of the scale not given here
[10] = Induction of anti-CD3 antibodies-stimulated human T cell activation at 1 uM assessed fold increase in CD25 expression measured by ELISA assay; further: reference of the scale not given here

Q: Which “fold change (FC)” value [1] does the source give for `C[C@H](Sc1nncn1C)c1cccc(NC(=O)c2cc(C(=O)N3C[C@H](O)C[C@@H]3C)ccn2)c1` here?
A: The value was “>=7.5”.

Q: And the “fold change (FC)” value [2]?
A: The value was “>=7.5”.

Q: What about the “fold change (FC)” value [3] of the same compound?
A: The value was “>=7.5”.

Q: And the “fold change (FC)” value [4]?
A: The value was “<=0.05”.

Q: What about the “fold change (FC)” value [5] of the same compound?
A: The value was “<=0.05”.

Q: And the “fold change (FC)” value [6]?
A: Its value is 1.01.

Q: And the “fold change (FC)” value [7]?
A: The value was 1.01.

Q: And the “fold change (FC)” value [8]?
A: Its value is 1.01.

Q: What about the “fold change (FC)” value [9] of the same compound?
A: The value was 0.601.

Q: What about the “fold change (FC)” value [10] of the same compound?
A: The value was “<=0.6”.

Q: With `C[C@H](Cc1nncn1C)c1cc(OC2COC2)nc(N2Cc3c(cccc3C(F)(F)F)C2=O)c1` as the compound, how does the “fold change (FC)” value [1] read?
A: The value was 1.01.

Q: What about the “fold change (FC)” value [2] of the same compound?
A: The value was 1.01.

Q: What about the “fold change (FC)” value [3] of the same compound?
A: Its value is 1.01.

Q: What about the “fold change (FC)” value [4] of the same compound?
A: The value was “>=0.201”.

Q: And the “fold change (FC)” value [5]?
A: Its value is 0.101.

Q: And the “fold change (FC)” value [6]?
A: Its value is 1.31.

Q: And the “fold change (FC)” value [7]?
A: Its value is 1.01.

Q: And the “fold change (FC)” value [8]?
A: Its value is 1.01.

Q: What about the “fold change (FC)” value [9] of the same compound?
A: Its value is “>=1.001”.

Q: What about the “fold change (FC)” value [10] of the same compound?
A: The value was 0.601.

Q: Which results are given for `C[C@H](Cc1nncn1C)c1cccc(NC(=O)c2cc(C(C)(C)O)cc(C(F)(F)F)n2)c1`?
A: fold change (FC) [1]: 5; fold change (FC) [2]: 2.51; fold change (FC) [3]: 1.01; fold change (FC) [4]: >=0.201; fold change (FC) [5]: 0.101; fold change (FC) [6]: 1.01; fold change (FC) [7]: 1.01; fold change (FC) [8]: 1.01; fold change (FC) [9]: >=1.001; fold change (FC) [10]: 0.801

Q: Which “fold change (FC)” value [1] does the source give for `Cn1cnnc1CC(c1cccc(N2Cc3c(cccc3C(F)(F)F)C2=O)c1)C(F)(F)F` (stereo not given) here?
A: The value was 1.01.

Q: And the “fold change (FC)” value [2]?
A: The value was “<=1”.

Q: And the “fold change (FC)” value [3]?
A: Its value is “<=1”.

Q: And the “fold change (FC)” value [4]?
A: Its value is 0.151.

Q: What about the “fold change (FC)” value [5] of the same compound?
A: The value was 0.101.

Q: And the “fold change (FC)” value [6]?
A: The value was 1.01.

Q: What about the “fold change (FC)” value [7] of the same compound?
A: Its value is 1.01.

Q: What about the “fold change (FC)” value [8] of the same compound?
A: The value was 1.01.

Q: And the “fold change (FC)” value [9]?
A: The value was 0.801.

Q: What about the “fold change (FC)” value [10] of the same compound?
A: The value was 0.801.

Q: For `C[C@H](Cc1nncn1C)c1cccc(NC(=O)c2cc(S(C)(=O)=O)cc(C3CC3)n2)c1`, which “fold change (FC)” value [1] is on record?
A: Its value is 1.01.

Q: And the “fold change (FC)” value [2]?
A: Its value is 1.01.

Q: What about the “fold change (FC)” value [3] of the same compound?
A: Its value is 1.01.

Q: What about the “fold change (FC)” value [4] of the same compound?
A: Its value is “>=0.201”.

Q: And the “fold change (FC)” value [5]?
A: The value was 0.101.

Q: And the “fold change (FC)” value [6]?
A: Its value is “<=1”.

Q: And the “fold change (FC)” value [7]?
A: The value was 1.01.

Q: What about the “fold change (FC)” value [8] of the same compound?
A: The value was 1.01.

Q: What about the “fold change (FC)” value [9] of the same compound?
A: The value was “>=1.001”.

Q: What about the “fold change (FC)” value [10] of the same compound?
A: The value was 0.801.

Q: For `C[C@H](Cc1nncn1C)c1cc(NC2CCC2)nc(N2Cc3c(cccc3C(F)(F)F)C2=O)c1`, which “fold change (FC)” value [1] is on record?
A: The value was 1.01.

Q: And the “fold change (FC)” value [2]?
A: The value was 1.01.

Q: And the “fold change (FC)” value [3]?
A: The value was 1.01.

Q: What about the “fold change (FC)” value [4] of the same compound?
A: Its value is 0.151.

Q: What about the “fold change (FC)” value [5] of the same compound?
A: The value was “<=0.05”.

Q: And the “fold change (FC)” value [6]?
A: The value was 1.01.

Q: What about the “fold change (FC)” value [7] of the same compound?
A: The value was 1.01.

Q: What about the “fold change (FC)” value [8] of the same compound?
A: Its value is 1.01.

Q: And the “fold change (FC)” value [9]?
A: Its value is “>=1.001”.

Q: What about the “fold change (FC)” value [10] of the same compound?
A: The value was 0.601.

Q: With `C[C@H](Cc1nncn1C)c1cccc(NC(=O)c2ccn3nccc3n2)c1` as the compound, how does the “fold change (FC)” value [1] read?
A: The value was 2.51.

Q: What about the “fold change (FC)” value [2] of the same compound?
A: The value was 1.01.

Q: And the “fold change (FC)” value [3]?
A: The value was 1.01.

Q: What about the “fold change (FC)” value [4] of the same compound?
A: Its value is 0.151.

Q: And the “fold change (FC)” value [5]?
A: Its value is 0.051.

Q: What about the “fold change (FC)” value [6] of the same compound?
A: Its value is 1.01.

Q: And the “fold change (FC)” value [7]?
A: The value was 1.01.

Q: What about the “fold change (FC)” value [8] of the same compound?
A: The value was 1.01.

Q: And the “fold change (FC)” value [9]?
A: Its value is “>=1.001”.

Q: And the “fold change (FC)” value [10]?
A: The value was 0.601.

Q: Which results are given for `C[C@H](Sc1nncn1C)c1cccc(NC(=O)c2ccc(Cl)c(C(F)(F)F)n2)c1`?
A: fold change (FC) [1]: 1.01; fold change (FC) [2]: <=1; fold change (FC) [3]: <=1; fold change (FC) [4]: <=0.05; fold change (FC) [5]: <=0.05; fold change (FC) [6]: 1.01; fold change (FC) [7]: 1.01; fold change (FC) [8]: 1.01; fold change (FC) [9]: >=1.001; fold change (FC) [10]: 0.801

Q: Which “fold change (FC)” value [1] does the source give for `Cn1cnnc1CC1(c2cccc(NC(=O)c3ccnc(C(F)(F)F)n3)c2)COC1` here?
A: The value was 2.51.

Q: And the “fold change (FC)” value [2]?
A: The value was 2.51.

Q: What about the “fold change (FC)” value [3] of the same compound?
A: The value was 1.01.

Q: What about the “fold change (FC)” value [4] of the same compound?
A: Its value is 0.151.

Q: And the “fold change (FC)” value [5]?
A: Its value is 0.051.

Q: What about the “fold change (FC)” value [6] of the same compound?
A: Its value is 1.01.

Q: What about the “fold change (FC)” value [7] of the same compound?
A: Its value is 1.01.

Q: And the “fold change (FC)” value [8]?
A: The value was 1.01.

Q: What about the “fold change (FC)” value [9] of the same compound?
A: The value was “>=1.001”.

Q: And the “fold change (FC)” value [10]?
A: Its value is 0.601.
